Test results reported in US20260053811A1, “METHODS OF TREATING HYPERTENSION IN OBESE SUBJECTS” (Mineralys Therapeutics, Inc., priority 2022, published 2026).

System: hypertensive subjects
Test: Seated automated office blood pressure (AOBP) in randomized, placebo-controlled, dose-ranging study
Format: in vivo, human
Conditions: Part 1, 12.5 mg QD
Experimental: A randomized, double-blinded, placebo-controlled, dose-ranging, multicenter study was conducted to evaluate the effect of orally administered Compound A HBr on blood pressure for the treatment of hypertension in male and female subjects ≥18 years of age.
The study consists of two parts. For enrollment into Part 1 of the study, a subject's value of plasma renin activity (PRA) must be ≤1 ng/mL/h based on morning measurement. If the value of PRA >1 ng/mL/h based on morning measurement, then subjects may be eligible to enter Part 2 of the study.
For Part 1, 163 enrolled subjects ≥18 years of age were randomized into 6 equal treatment groups (1:1:1:1:1:1) to 12.5 mg BID, 25 mg BID, 12.5 mg QD, 50 mg QD, 100 mg QD, or placebo. After a review of interim clinical data, the 2 lowest dose levels (12.5 mg QD and 12.5 mg BID) were stopped for future randomization due to a lack of consistent meaningful reduction of blood pressure, but the patients randomized to that point remained in the study through completion. Thus, after the review of interim clinical data, subjects were randomized into 4 equal treatment groups (1:1:1:1) to 25 mg BID, 50 mg QD, 100 mg QD, or placebo.
For Part 2, 36 enrolled subjects ≥18 years of age were randomized (5:1) to either 100 mg QD Compound A HBr or placebo such that the Compound A HBr treatment group consisted of approximately 30 subjects and the placebo treatment group will consist of approximately 6 subjects.
Subjects orally administered the assigned study drug (Compound A HBr or placebo) according to the assigned dosing regimen for 8 weeks beginning on Study Day 1. All subjects in Part 1 (regardless of dosing group) received BID dosing to preserve the integrity of the blind; active drug is administered as the morning dose for all QD dose groups. Subjects returned to the research facility or were seen by the clinical investigator or approved home health care professional at the end of Study Weeks 1, 2, 3, 4, 5, 6, 7, and 8 (±2 days) for protocol-defined efficacy and safety assessments and procedures, assessment of adverse events (AEs), and confirmation of compliance with study drug usage. Subjects also completed a telephone visit and blood pressure (BP) check at home approximately 3 days post last dose of study drug. Subjects attended up to 14 full clinic visits, including a pre-Screening visit, a Screening/start of Placebo Run-in visit, a second visit during Placebo Run-in, a clinic visit to initiate the ABPM procedure, a Randomization visit, 8 weekly visits during double-blind treatment, and an end-of-study visit scheduled 4 weeks after the last study treatment for final efficacy and safety assessments.
An automated oscillometric sphygmomanometer device was used to measure the subjects' systolic and diastolic blood pressure in office after approximately 5 minutes of rest in the seated position.
The primary endpoint is the change in office-measured (mean of last 2 of 5 unattended measurements using an automated oscillometric sphygmomanometer device after approximately 5 minutes of rest in the seated position) systolic blood pressure (SBP) from baseline to the end of Study Week 8.
Secondary endpoints of this study were: • (a) Change in 24-hour ambulatory blood pressure monitoring (ABPM) parameters (systolic and diastolic) from baseline to the end of Study Week 7. • (b) Change in office-measured SBP from baseline to the end of Study Weeks 1, 2, 3, 4, 5, 6, and 7. • (c) Change in office-measured diastolic blood pressure (DBP) from baseline to the end of Study Weeks 1, 2, 3, 4, 5, 6, 7, and 8. • (d) Proportion of subjects who achieve office-measured BP of ≤130/80 mm Hg by the end of Study Week 8.

SMILES: CC(=O)N[C@H]1CC[C@H](NC(=O)CN2CCN(c3nncc(-c4ccc(C)cc4)n3)CC2)CC1 [Compound A HBr]
- Mean (SD) Automated Office-Measured Systolic Blood Pressure at Wk 8 (Age 65-79 yr): 135.63 (15.23) mmHg
- Mean (SD) Change from Baseline at Week 8 in Automated Office-Measured Diastolic Blood Pressure (Age 65-79 yr): −5.06 (7.49) mmHg
- Mean (SD) Change from Baseline at Week 8 in Automated Office-Measured Systolic Blood Pressure (Age 65-79 yr): −8.50 (14.04) mmHg
- Mean (SD) Automated Office-Measured Diastolic Blood Pressure at Wk 8 (Age <65 yr): 82.63 (20.67) mmHg
- Mean (SD) Automated Office-Measured Systolic Blood Pressure at Wk 8 (Age <65 yr): 144.88 (25.16) mmHg
- Mean (SD) Change from Baseline at Week 8 in Automated Office-Measured Diastolic Blood Pressure (Age <65 yr): −2.19 (9.98) mmHg
- Mean (SD) Change from Baseline at Week 8 in Automated Office-Measured Systolic Blood Pressure (Age <65 yr): −5.75 (22.93) mmHg
- Mean (SD) Automated Office-Measured Diastolic Blood Pressure at Wk 8 (Age ≥80 yr): 93.50 (37.48) mmHg
- Mean (SD) Automated Office-Measured Systolic Blood Pressure at Wk 8 (Age ≥80 yr): 145.00 (42.43) mmHg
- Mean (SD) Change from Baseline at Week 8 in Automated Office-Measured Diastolic Blood Pressure (Age ≥80 yr): 13.00 (37.48) mmHg
- Mean (SD) Change from Baseline at Week 8 in Automated Office-Measured Systolic Blood Pressure (Age ≥80 yr): −4.75 (39.95) mmHg
- Mean (SD) Automated Office-Measured Diastolic Blood Pressure at Wk 8 (BMI 25−30 kg/m^2): 76.00 (6.22) mmHg
- Mean (SD) Change from Baseline at Week 8 in Automated Office-Measured Diastolic Blood Pressure (BMI 25−30 kg/m^2): −4.64 (7.81) mmHg
- Mean (SD) Automated Office-Measured Diastolic Blood Pressure at Wk 8 (BMI <25 kg/m^2): 73.00 (NE) mmHg
- Mean (SD) Change from Baseline at Week 8 in Automated Office-Measured Diastolic Blood Pressure (BMI <25 kg/m^2): −1.50 (NE) mmHg
- Mean (SD) Automated Office-Measured Diastolic Blood Pressure at Wk 8 (BMI >30 kg/m^2): 86.10 (21.92) mmHg
- Mean (SD) Change from Baseline at Week 8 in Automated Office-Measured Diastolic Blood Pressure (BMI >30 kg/m^2): 0.20 (16.85) mmHg
- Mean (SD) Automated Office-Measured Systolic Blood Pressure at Wk 8 (BMI at baseline 25-30 kg/m^2): 134.14 (18.96) mmHg
- Mean (SD) Change from Baseline at Week 8 in Automated Office-Measured Systolic Blood Pressure (BMI at baseline 25-30 kg/m^2): −7.71 (19.07) mmHg
- Mean (SD) Automated Office-Measured Systolic Blood Pressure at Wk 8 (BMI at baseline <25 kg/m^2): 137.00 (NE) mmHg
- Mean (SD) Change from Baseline at Week 8 in Automated Office-Measured Systolic Blood Pressure (BMI at baseline <25 kg/m^2): −11.50 (NE) mmHg
- Mean (SD) Automated Office-Measured Systolic Blood Pressure at Wk 8 (BMI at baseline >30 kg/m^2): 145.80 (24.73) mmHg
- Mean (SD) Change from Baseline at Week 8 in Automated Office-Measured Systolic Blood Pressure (BMI at baseline >30 kg/m^2): −5.80 (22.31) mmHg
- Mean (SD) Automated Office-Measured Diastolic Blood Pressure at Wk 8 (Race Black or AA): 85.00 (19.41) mmHg
- Mean (SD) Automated Office-Measured Systolic Blood Pressure at Wk 8 (Race Black or AA): 147.50 (22.06) mmHg
- Mean (SD) Change from Baseline at Week 8 in Automated Office-Measured Diastolic Blood Pressure (Race Black or AA): −0.69 (7.56) mmHg
- Mean (SD) Change from Baseline at Week 8 in Automated Office-Measured Systolic Blood Pressure (Race Black or AA): −1.44 (16.04) mmHg
- Mean (SD) Automated Office-Measured Diastolic Blood Pressure at Wk 8 (Race Other): 78.60 (15.76) mmHg
- Mean (SD) Automated Office-Measured Systolic Blood Pressure at Wk 8 (Race Other): 135.40 (21.55) mmHg
- Mean (SD) Change from Baseline at Week 8 in Automated Office-Measured Diastolic Blood Pressure (Race Other): −2.65 (17.00) mmHg
- Mean (SD) Change from Baseline at Week 8 in Automated Office-Measured Systolic Blood Pressure (Race Other): −11.20 (22.29) mmHg
- Mean (SD) Automated Office-Measured Diastolic Blood Pressure at Wk 8 (Seated SBP Tertile High): 84.22 (23.90) mmHg
- Mean (SD) Change from Baseline at Week 8 in Automated Office-Measured Diastolic Blood Pressure (Seated SBP Tertile High): −1.06 (18.28) mmHg
- Mean (SD) Automated Office-Measured Diastolic Blood Pressure at Wk 8 (Seated SBP Tertile Low): 78.50 (7.48) mmHg
- Mean (SD) Change from Baseline at Week 8 in Automated Office-Measured Diastolic Blood Pressure (Seated SBP Tertile Low): −4.17 (6.69) mmHg
- Mean (SD) Automated Office-Measured Diastolic Blood Pressure at Wk 8 (Seated SBP Tertile Middle): 79.00 (5.57) mmHg
- Mean (SD) Change from Baseline at Week 8 in Automated Office-Measured Diastolic Blood Pressure (Seated SBP Tertile Middle): 0.83 (5.62) mmHg
- Mean (SD) Automated Office-Measured Diastolic Blood Pressure at Wk 8 (Sex Female): 75.11 (8.40) mmHg
- Mean (SD) Automated Office-Measured Systolic Blood Pressure at Wk 8 (Sex Female): 136.00 (17.23) mmHg
- Mean (SD) Change from Baseline at Week 8 in Automated Office-Measured Diastolic Blood Pressure (Sex Female): −4.83 (8.08) mmHg
- Mean (SD) Change from Baseline at Week 8 in Automated Office-Measured Systolic Blood Pressure (Sex Female): −9.22 (10.54) mmHg
- Mean (SD) Automated Office-Measured Diastolic Blood Pressure at Wk 8 (Sex Male): 87.78 (21.70) mmHg
- Mean (SD) Automated Office-Measured Systolic Blood Pressure at Wk 8 (Sex Male): 145.56 (26.10) mmHg
- Mean (SD) Change from Baseline at Week 8 in Automated Office-Measured Diastolic Blood Pressure (Sex Male): 1.28 (17.06) mmHg
- Mean (SD) Automated Office-Measured Systolic Blood Pressure at Wk 8 (Systolic Blood Pressure Tertile at Baseline High): 146.33 (26.41) mmHg
